According to patent US7741245B2, “Method for treating plants or plant parts” (Rohm and Haas Company, priority 2004, dated 2010):

Test system: Patio variety tomato seedlings
Test: Tomato Epinasty Test
Assay type: in vivo
Conditions: 1000 ppm v/v OCPO in air of sealed chamber; ethylene 10 ppm v/v injected four hours later; scored sixteen hours later
Protocol: The biological activity of OCPO was assessed with the Tomato Epinasty Test. Epinasty is downward bending of leaves. The test was performed as follows. Test plants are Patio variety tomato seedlings planted two plants per three inch square plastic pot. Volatile gas treatment entailed placing two pots of Patio variety tomatoes into a polystyrene 4.8 L volume treatment chamber along with one-half (upper or lower section) of a 50×9 mm plastic Petri dish containing a Gelman filter pad. OCPO, dissolved in 1.0 ml acetone, was pipetted onto the filter pad and the chamber was immediately sealed. The amount of OCPO was calculated to give concentration of 1000 ppm v/v of OCPO in the air of the sealed chamber. Four hours later ethylene gas was injected into the sealed chamber in an amount to give concentration of ethylene of 10 ppm v/v final concentration in the sealed chamber. Sixteen hours later the chambers were opened in an exhaust hood, allowed to air, and the plants scored visually for the degree of protection against ethylene-induced epinasty conferred by the experimental compound when compared to untreated controls on a scale of 0 to 10. A rating of 10 means complete protection. A rating of 0 means no protection from the effects of ethylene.

Structure (SMILES): CCCCCCCCc1cc1=O [OCPO, 1-octylcycloprop-1-en-2-one]
- protection against ethylene-induced epinasty, visual rating on a scale of 0 to 10 (10 = complete protection, 0 = no protection): 7
